Experimental data taken from ChEMBL document CHEMBL4052655, “Synthesis, spectroscopic characterization and biological evaluation of unsymmetrical aminosquarylium cyanine dyes” (Bioorg Med Chem, 2017).
pIC50: −log10 of the molar value. Calls of active or inactive are those of the source. The calls are words filed in the database; no cut-off is given here.

Experiments:
HepG2 [1] = assay: Phototoxicity against human HepG2 cells assessed as cell viability at 5 uM pretreated for 24 hrs followed by 3.61 J irradiation for 14 mins measured after 24 hrs by Alamar blue assay relative to control; type: functional; details: HepG2, light or radiation study, read-out: Activity
[2] = Induction of singlet oxygen production in chloroform
HepG2 [3] = assay: Phototoxicity against human HepG2 cells assessed as reduction in cell viability up to 10 uM pretreated for 24 hrs followed by 1.81 J irradiation for 7 mins measured after 1 hr by Alamar blue assay; type: functional, cell-based
Caco-2 [4] = assay: Dark toxicity against human Caco2 cells assessed as reduction in cell viability at 10 uM pretreated for 24 hrs followed by 14 mins dark incubation measured after 1 to 24 hrs by Alamar blue assay; type: cell-based; details: caco-2, 10 µM
HepG2 [5] = assay: Dark toxicity against human HepG2 cells assessed as reduction in cell viability at 1 uM pretreated for 24 hrs followed by 14 mins dark incubation measured after 1 to 24 hrs by Alamar blue assay; type: cell-based; details: hepg2, 1 µM
HepG2 [6] = assay: Phototoxicity against human HepG2 cells pretreated for 24 hrs followed by 1.81 J irradiation for 7 mins measured after 1 hr by Alamar blue assay; type: functional, cell-based; details: HepG2, light or radiation study
HepG2 [7] = assay: Phototoxicity against human HepG2 cells pretreated for 24 hrs followed by 1.81 J irradiation for 7 mins measured after 24 hrs by Alamar blue assay; type: functional, cell-based; details: HepG2, light or radiation study
Caco-2 [8] = assay: Dark toxicity against human Caco2 cells assessed as reduction in cell viability at 1 uM pretreated for 24 hrs followed by 14 mins dark incubation measured after 1 to 24 hrs by Alamar blue assay; type: cell-based; details: caco-2, 1 µM
Caco-2 [9] = assay: Phototoxicity against human Caco2 cells at 5 to 10 uM pretreated for 24 hrs followed by 1.81 J irradiation for 7 mins measured after 24 hrs by Alamar blue assay; type: functional, cell-based
HepG2 [10] = assay: Phototoxicity against human HepG2 cells pretreated for 24 hrs followed by 3.61 J irradiation for 14 mins measured after 24 hrs by Alamar blue assay; type: functional, cell-based; details: HepG2, light or radiation study
HepG2 [11] = assay: Phototoxicity against human HepG2 cells pretreated for 24 hrs followed by 3.61 J irradiation for 14 mins measured after 1 hr by Alamar blue assay; type: functional, cell-based; details: HepG2, light or radiation study
Caco-2 [12] = assay: Phototoxicity against human Caco2 cells pretreated for 24 hrs followed by 1.81 J irradiation for 7 mins measured after 1 hr by Alamar blue assay; type: functional, cell-based; details: Caco-2, light or radiation study
HepG2 [13] = assay: Phototoxicity against human HepG2 cells assessed as reduction in cell viability at 5 uM pretreated for 24 hrs followed by 3.61 J irradiation for 14 mins measured after 24 hrs by Alamar blue assay; type: functional, cell-based
Caco-2 [14] = assay: Phototoxicity against human Caco2 cells pretreated for 24 hrs followed by 3.61 J irradiation for 14 mins measured after 24 hrs by Alamar blue assay; type: functional, cell-based; details: Caco-2, light or radiation study
[15] = Dark toxicity against human HepG2 cells assessed as cell viability at 10 uM pretreated for 24 hrs followed by 14 mins dark incubation measured after 1 to 24 hrs by Alamar blue assay relative to control; type: cell-based; details: read-out: Activity
Caco-2 [16] = assay: Phototoxicity against human Caco2 cells at 5 to 10 uM pretreated for 24 hrs followed by 3.61 J irradiation for 14 mins measured after 24 hrs by Alamar blue assay; type: functional, cell-based
[17] = Dark toxicity against human HepG2 cells pretreated for 24 hrs followed by 14 mins dark incubation measured after 24 hrs by Alamar blue assay; type: cell-based
Caco-2 [18] = assay: Phototoxicity against human Caco2 cells pretreated for 24 hrs followed by 1.81 J irradiation for 7 mins measured after 24 hrs by Alamar blue assay; type: functional, cell-based; details: Caco-2, light or radiation study
[19] = Dark toxicity against human HepG2 cells pretreated for 24 hrs followed by 14 mins dark incubation measured after 1 hr by Alamar blue assay; type: cell-based
Caco-2 [20] = assay: Phototoxicity against human Caco2 cells pretreated for 24 hrs followed by 3.61 J irradiation for 14 mins measured after 1 hr by Alamar blue assay; type: functional, cell-based; details: Caco-2, light or radiation study
[21] = Dark toxicity against human Caco2 cells pretreated for 24 hrs followed by 14 mins dark incubation measured after 24 hrs by Alamar blue assay; type: cell-based; details: Caco-2 cells
[22] = Dark toxicity against human Caco2 cells pretreated for 24 hrs followed by 14 mins dark incubation measured after 1 hr by Alamar blue assay; type: cell-based; details: Caco-2 cells
[23] = Dark toxicity against human HepG2 cells assessed as cell viability at 5 to 10 uM pretreated for 24 hrs followed by 14 mins dark incubation measured after 1 to 24 hrs by Alamar blue assay relative to control; type: cell-based; details: read-out: Activity
Caco-2 [24] = assay: Ratio of IC50 for human Caco2 cells pretreated for 24 hrs followed by 14 mins dark incubation to IC50 for human Caco2 cells pretreated for 24 hrs followed by 3.61 J irradiation for 14 mins
Caco-2 [25] = assay: Phototoxicity against human Caco2 cells assessed as cell viability at 5 uM pretreated for 24 hrs followed by 3.61 J irradiation for 14 mins measured after 24 hrs by Alamar blue assay (reference value: 60%); type: functional; details: Caco-2, light or radiation study, read-out: Activity
HepG2 [26] = assay: Phototoxicity against human HepG2 cells assessed as reduction in cell viability at 1 uM pretreated for 24 hrs followed by 3.61 J irradiation for 14 mins measured after 1 hr by Alamar blue assay; type: functional, cell-based
[27] = Dark toxicity against human Caco2 cells assessed as cell viability at 0.1 to 1 uM pretreated for 24 hrs followed by 14 mins dark incubation after 1 to 24 hrs by Alamar blue assay relative to control; type: cell-based; details: Caco-2 cells, read-out: Activity
HepG2 [28] = assay: Phototoxicity against human HepG2 cells assessed as reduction in cell viability at 1 uM pretreated for 24 hrs followed by 1.81 J irradiation for 7 mins measured after 24 hrs by Alamar blue assay; type: functional, cell-based
Caco-2 [29] = assay: Phototoxicity against human Caco2 cells assessed as reduction in cell viability at 1 uM pretreated for 24 hrs followed by 1.81 J irradiation for 7 mins measured after 1 to 24 hrs by Alamar blue assay; type: functional, cell-based
HepG2 [30] = assay: Phototoxicity against human HepG2 cells assessed as reduction in cell viability at 1 uM pretreated for 24 hrs followed by 3.61 J irradiation for 14 mins measured after 24 hrs by Alamar blue assay; type: functional, cell-based
[31] = Dark toxicity against human Caco2 cells assessed as cell viability at 5 to 10 uM pretreated for 24 hrs followed by 14 mins dark incubation measured after 1 to 24 hrs by Alamar blue assay relative to control; type: cell-based; details: Caco-2 cells, read-out: Activity
Caco-2 [32] = assay: Phototoxicity against human Caco2 cells assessed as reduction in cell viability at 1 uM pretreated for 24 hrs followed by 3.61 J irradiation for 14 mins measured after 24 hrs by Alamar blue assay; type: functional, cell-based
[33] = Dark toxicity against human HepG2 cells assessed as cell viability at 1 uM pretreated for 24 hrs followed by 14 mins dark incubation after 48 hrs by Alamar blue assay relative to control; type: cell-based; details: read-out: Activity
Caco-2 [34] = assay: Phototoxicity against human Caco2 cells assessed as cell viability at 5 uM pretreated for 24 hrs followed by 1.81 J irradiation for 7 mins measured after 24 hrs by Alamar blue assay (reference value: 60%); type: functional; details: Caco-2, light or radiation study, read-out: Activity
[35] = Dark toxicity against human Caco2 cells assessed as cell viability at 1 uM pretreated for 24 hrs followed by 14 mins dark incubation after 1 to 24 hrs by Alamar blue assay relative to control; type: cell-based; details: Caco-2 cells, read-out: Activity
Caco-2 [36] = assay: Phototoxicity against human Caco2 cells assessed as cell viability at 1 uM pretreated for 24 hrs followed by 3.61 J irradiation for 14 mins measured after 24 hrs by Alamar blue assay (reference value: 80%); type: functional; details: Caco-2, light or radiation study, read-out: Activity
HepG2 [37] = assay: Phototoxicity against human HepG2 cells assessed as reduction in cell viability at 1 uM pretreated for 24 hrs followed by 1.81 J irradiation for 7 mins measured after 1 hr by Alamar blue assay; type: functional, cell-based

SMILES | Activity [2] | pIC50 (HepG2 [6]) | pIC50 (HepG2 [7]) | pIC50 (HepG2 [10]) | pIC50 (HepG2 [11]) | pIC50 (Caco-2 [12]) | pIC50 (Caco-2 [14]) | IC50 at 24 h [17] [nM] | pIC50 (Caco-2 [18]) | IC50 at 1 h [19] [nM] | pIC50 (Caco-2 [20]) | IC50 at 24 h [21] [nM] | IC50 at 1 h [22] [nM] | viability at 24 h, 10 µM [23] [%] | Activity (HepG2 [26]) | Activity (HepG2 [28]) | Activity (Caco-2 [29]) | Activity (HepG2 [30]) | viability at up to 10 µM [31] [%] | viability at 48 h, 1 µM [33] [%] | other results
CCCCCCN1/C(=C/C2=C([O-])C(=C\c3ccc4ccccc4[n+]3CCCCCC)/C2=O)Sc2ccccc21 | Active | 5.07 | 5.08 | 5.30 | 5.05 | < 5.00 | 5.29 | 7840 | 5.27 | 9100 | < 5.00 | 5800 | > 10000 | – | – | – | – | – | – | – | viability at 5 µM (HepG2 [1]): 50%; Activity (HepG2 [3]): inactive; Activity (Caco-2 [4]): Non-Toxic; Activity (HepG2 [5]): Non-Toxic; Activity (Caco-2 [8]): Non-Toxic; Activity (Caco-2 [9]): Active; Activity (HepG2 [13]): Active; viability at 24 h, 10 µM [15]: 15%; Activity (Caco-2 [16]): Active
CCCCCCN1/C(=C/C2=C(NC)C(=C\c3ccc4ccccc4[n+]3CCCCCC)/C2=O)Sc2ccccc21.[I-] | Active | 5.47 | 5.99 | 6.08 | 6.03 | 5.41 | 6.33 | 1360 | 5.94 | 2930 | 5.84 | 1270 | 5110 | 0 | Active | Active | Active | Active | 0 | 70 | Ratio IC50 (Caco-2 [24]): 3.6; viability at 5 µM (Caco-2 [25]): 0%; viability at up to 1 µM [27]: 70%; Activity (Caco-2 [32]): Active; viability at 5 µM (Caco-2 [34]): 0%
CCCCCCN1/C(=C/C2=C(N)C(=C\c3ccc4ccccc4[n+]3CCCCCC)/C2=O)Sc2ccccc21 | Active | 6.12 | 6.03 | 6.19 | 6.07 | 5.91 | 6.16 | 1400 | 5.86 | 1710 | 6.02 | 1650 | 1720 | 0 | Active | Active | Active | Active | 0 | 20 | viability at 24 h, 1 µM [35]: 20%; viability at 1 µM (Caco-2 [36]): 0%; Activity (HepG2 [37]): Active
